Source: PMC10488193, “Evaluation of the Chemical Stability, Membrane Permeability and Antiproliferative Activity of Cyclic Diarylheptanoids from European Hornbeam (Carpinus betulus L.)” (International Journal of Molecular Sciences, 2023)

Experiments:
[1] = Storage stability in solutions and hornbeam bark extracts (UHPLC-DAD); type: physicochemical; conditions: for k / t1/2: storage 23 weeks
Description: For the analysis of the samples from the chemical stability as well as the PAMPA studies, sample concentrations were determined using our previously developed ultrahigh-performance liquid chromatography–diode array detection (UHPLC-DAD) method validated for linearity, precision and accuracy. Briefly, an ACQUITY UPLC H-Class PLUS System hyphenated with a quaternary solvent delivery pump (QSM), an auto-sampler manager (FTN), a column compartment (CM) and a photodiode array (PDA) detector (Waters Corporation) was employed. Stationary phase: Acquity BEH C18 column (100 × 2.1 mm i.d., 1.7 µm; Waters Corporation), column temperature: 30 °C. The mobile phase consisted of 0.3% acetic acid in water (eluent A) and acetonitrile (eluent B). The following gradient elution was applied at a flow rate of 0.3 mL/min: 0 min 12.0% B, 19.0 min 13.5% B, 25.5 min 75.0% B, 26.0 min 100.0% B, 28.0 min 100.0% B, 28.5 min 12.0% B.
We used the following equations to calculate the first-order reaction rate constant (k) and the half-life (t1/2) indicating the time required to reduce the concentration of diarylheptanoids by 50% [29]:ln (ct/c0) = −k × t(1) t1/2 = −ln 0.5 × k^−1(2) where ct is the concentration of the diarylheptanoids at time t, c0 is the initial concentration, k is the reaction rate constant, t is the treatment time.
The chemical stability of the isolated compounds in solutions was examined at a concentration of 50 µg/mL in methanol and water (in the latter case using methanol as co-solvent, final composition: water-methanol 90:10, v/v). Furthermore, the methanol and ethyl acetate extracts of C. betulus bark (concentration 4 mg/mL) were also studied in order to assess the effects of the accompanying substances. The storage stability studies were performed at a neutral pH value. All solutions were filtered through Phenex-RC 15 mm, 0.2 μm syringe filters (Gen-Lab Ltd., Budapest, Hungary). The samples were prepared in triplicate and stored protected from light at 22 ± 2.0 °C, 5 ± 1.5 °C and −15 ± 2.0 °C for 23 weeks. Quantities of the analytes of interest were quantified at weeks 12 and 23 using the abovementioned UHPLC-DAD method (see Section 3.4).
The effects of the temperature and the medium (i.e., solvent and accompanying substances) were analysed through one-way analysis of variance (ANOVA) followed by Tukey’s post hoc HSD test (p < 0.05). To establish the kinetic parameters t1/2 and k, Equations (1) and (2) were applied, respectively.

[2] = tested on: A2058 (melanoma, derived from metastatic site: lymph node); experiment: In vitro antiproliferative activity, Alamar Blue assay; type: cell-based; conditions: Homo sapiens; A2058, 24 h treatment, then three days culture, n = 2; read-out: IC50 ± SD
Description: (§1) For the experiments, the following human cell lines were used: A2058 (melanoma, derived from metastatic site: lymph node), HepG2 (hepatocellular carcinoma), U87 (glioblastoma), HT-29 (colorectal carcinoma) and HL-60 (acute promyelocytic leukaemia). Cell lines were generous gifts from Dr. […] (Department of Experimental Pharmacology, National Institute of Oncology, Budapest, Hungary). […] The cultures were maintained at 37 °C in a humidified atmosphere with 5% CO2. The cells were grown to confluency and then divided into 96-well tissue culture plates (Sarstedt, Nümbrecht, Germany) with an initial cell number of 5000 cells/well. Cells were incubated at 37 °C in a 5% CO2 humidified atmosphere overnight. Before the assay, 50 μL of the supernatant was removed and replaced with a 50 μL serum-free medium (SFM). […] The cells were treated for 24 h with the compounds and negative control cells (no compound control) were treated with SFM only (incubated at 37 °C). […] The percentage of cytostasis was calculated with the following equation: […] Data were evaluated with Excel (version: 365; Microsoft, Redmond, WA, USA) and the curves were defined using Microcal OriginPro (version: 2018; OriginLab, Northampton, MA, USA) software. In each case, two independent experiments were carried out with four parallel measurements and the mean IC50 values together with ±SD were represented. The Excel (version: 365) (Microsoft, Redmond, WA, USA) and Microcal OriginPro (version: 2018) (OriginLab, Northampton, MA, USA) softwares were used for data evaluation.

U87 (glioblastoma) = experiment: as above; type: cell-based; conditions: Homo sapiens; U87, 24 h treatment, then three days culture, n = 2; read-out: IC50 ± SD
Description: as §1

[3] = tested on: HepG2 (hepatocellular carcinoma); experiment: as above; type: cell-based; conditions: Homo sapiens; HepG2, 24 h treatment, then three days culture, n = 2; read-out: IC50 ± SD
Description: as §1

[4] = tested on: HT-29 (colorectal carcinoma); experiment: as above; type: cell-based; conditions: Homo sapiens; HT-29, 24 h treatment, then three days culture, n = 2; read-out: IC50 ± SD
Description: as §1

[5] = tested on: HL-60 (acute promyelocytic leukaemia); experiment: as above; type: cell-based; conditions: Homo sapiens; HL-60, 24 h treatment, then three days culture, n = 2; read-out: IC50 ± SD
Description: as §1

SMILES: O=C1C[C@H](O)[C@@H](O)Cc2ccc(O)c(c2)-c2cc(ccc2O)C[C@H]1O [Compound 1, carpinontriol A]
- k ([1]; 5 °C, SA (aqueous solution)): 4.47 × 10^−3 Week^−1
- t1/2 ([1]; 5 °C, SA (aqueous solution)): 147.48 Week
- k ([1]; 5 °C, SM (methanol solution)): 1.40 × 10^−2 Week^−1
- concentration as compared to the initial value ([1]; 12 weeks, 5 °C, EE (ethyl acetate extract of bark)): 104.6 ± 1.0 ^#bcg %
- concentration as compared to the initial value ([1]; 12 weeks, 5 °C, EM (methanol extract of bark)): 110.1 ± 6.2 ^bc %
- concentration as compared to the initial value ([1]; 12 weeks, 5 °C, SA (aqueous solution)): 91.4 ± 0.2 ^#def %
- concentration as compared to the initial value ([1]; 12 weeks, 5 °C, SM (methanol solution)): 90.8 ± 2.3 ^#def %
- concentration as compared to the initial value ([1]; 12 weeks, 22 °C, EE (ethyl acetate extract of bark)): 110.9 ± 3.6 ^#bc %
- concentration as compared to the initial value ([1]; 12 weeks, 22 °C, EM (methanol extract of bark)): 114.0 ± 2.2 ^#b %
- concentration as compared to the initial value ([1]; 12 weeks, 22 °C, SA (aqueous solution)): 61.7 ± 5.7 ^#a %
- concentration as compared to the initial value ([1]; 12 weeks, 22 °C, SM (methanol solution)): 63.5 ± 8.7 ^#a %
- concentration as compared to the initial value ([1]; 12 weeks, −15 °C, EE (ethyl acetate extract of bark)): 100.5 ± 0.5 ^ceg %
- concentration as compared to the initial value ([1]; 12 weeks, −15 °C, EM (methanol extract of bark)): 108.7 ± 1.5 ^#bc %
- concentration as compared to the initial value ([1]; 12 weeks, −15 °C, SA (aqueous solution)): 93.5 ± 0.4 ^#ef %
- concentration as compared to the initial value ([1]; 12 weeks, −15 °C, SM (methanol solution)): 94.0 ± 0.8 ^#efg %
- k ([1]; 22 °C, SA (aqueous solution)): 5.97 × 10^−2 Week^−1
- t1/2 ([1]; 22 °C, SA (aqueous solution)): 11.61 Week
- k ([1]; 22 °C, SM (methanol solution)): 4.53 × 10^−2 Week^−1
- t1/2 ([1]; 22 °C, SM (methanol solution)): 15.30 Week
- concentration as compared to the initial value ([1]; 23 weeks, 5 °C, EE (ethyl acetate extract of bark)): 92.1 ± 1.3 ^#def %
- concentration as compared to the initial value ([1]; 23 weeks, 5 °C, EM (methanol extract of bark)): 84.1 ± 1.1 ^#dfi %
- concentration as compared to the initial value ([1]; 23 weeks, 5 °C, SA (aqueous solution)): 87.2 ± 0.4 ^#dfi %
- concentration as compared to the initial value ([1]; 23 weeks, 5 °C, SM (methanol solution)): 67.1 ± 7.5 ^#aj %
- concentration as compared to the initial value ([1]; 23 weeks, 22 °C, EE (ethyl acetate extract of bark)): 81.5 ± 3.9 ^#di %
- concentration as compared to the initial value ([1]; 23 weeks, 22 °C, EM (methanol extract of bark)): 77.7 ± 2.9 ^#ij %
- concentration as compared to the initial value ([1]; 23 weeks, 22 °C, SA (aqueous solution)): 23.0 ± 0.5 ^#h %
- concentration as compared to the initial value ([1]; 23 weeks, 22 °C, SM (methanol solution)): 32.3 ± 6.3 ^#h %
- concentration as compared to the initial value ([1]; 23 weeks, −15 °C, EE (ethyl acetate extract of bark)): 91.3 ± 4.2 ^#def %
- concentration as compared to the initial value ([1]; 23 weeks, −15 °C, EM (methanol extract of bark)): 88.3 ± 3.4 ^#dfi %
- concentration as compared to the initial value ([1]; 23 weeks, −15 °C, SA (aqueous solution)): 93.7 ± 0.3 ^#efg %
- concentration as compared to the initial value ([1]; 23 weeks, −15 °C, SM (methanol solution)): 88.9 ± 3.1 ^#dfi %
- k ([1]; −15 °C, SA (aqueous solution)): 1.70 × 10^−3 Week^−1
- t1/2 ([1]; −15 °C, SA (aqueous solution)): 407.73 Week
- k ([1]; −15 °C, SM (methanol solution)): 3.60 × 10^−3 Week^−1
- t1/2 ([1]; −15 °C, SM (methanol solution)): 192.54 Week
- IC50 [2]: 14.9 ± 2.3 µM
- IC50 (U87 (glioblastoma)): > 100 µM
- IC50 [3]: > 100 µM
- IC50 [4]: > 100 µM
- IC50 [5]: > 100 µM
